Columns and labels:
[1] = target: T1, hSERT Y95F (S1 site mutant) (Homo sapiens, UniProt P31645, Y95F); experiment: APP+ transport in HeLa cells expressing hSERT mutant Y95F; format: cell-based
T1 construct: expressed in transfected cells; host or cells: HeLa (ATCC CCL-2), transient, pcDNA3.1
Experimental: (§1) The mutants used for this study were constructed in the WT background carried by the expression plasmids for hSERT, hDAT, or hNET under the control of CMV promotor in pcDNA3.1 vector, respectively. All mutants were generated using the Mut Express II Fast Mutagenesis Kit (Vazyme) and confirmed by full-length DNA sequencing.
(§2) HeLa cells were cultured in Dulbecco’s Modified Eagle’s Medium supplemented with 10% fetal bovine serum, 100 units/ml penicillin, and 100 μg/ml streptomycin at 37°C in a humidified 5% CO2 incubator. Cells were plated in a 6-well culture plate and grown overnight. Cells at ∼70% confluence were transfected with hSERT, hDAT, or hNET cDNA in pcDNA3.1 by lipofectamine 2000. […] After grown for additional 12–16 h, the cells were assayed for APP^+ or ASP^+ fluorescence image acquisition.
(§3) The cells expressing WT or mutants of hSERT, hDAT, or hNET were wet mounted on polylysine coated glass slides in 12-well plates and applied for the indicated treatments. […] The extent of APP^+ accumulated in the cells was determined by confocal imaging analysis. ASP^+ binding to SERT in the cell membrane was measured with digitonin-permeabilized cells ([Li M. et al., 2022a]). […] After removing excess ASP^+ by rapid washing three times, ASP^+ binding was determined by confocal imaging analysis.
(§4) Images were analyzed using Zen Blue software. […]

[2] = target: T2, hDAT A480G (S2 site mutant) (Homo sapiens, UniProt Q01959, A480G); experiment: APP+ transport in HeLa cells expressing hDAT mutant A480G; format: cell-based; conditions: intact HeLa cells, read-out: SAG IC50
T2 construct: expressed in transfected cells; host or cells: HeLa
T2 sequence (Q01959 whole entry A480G): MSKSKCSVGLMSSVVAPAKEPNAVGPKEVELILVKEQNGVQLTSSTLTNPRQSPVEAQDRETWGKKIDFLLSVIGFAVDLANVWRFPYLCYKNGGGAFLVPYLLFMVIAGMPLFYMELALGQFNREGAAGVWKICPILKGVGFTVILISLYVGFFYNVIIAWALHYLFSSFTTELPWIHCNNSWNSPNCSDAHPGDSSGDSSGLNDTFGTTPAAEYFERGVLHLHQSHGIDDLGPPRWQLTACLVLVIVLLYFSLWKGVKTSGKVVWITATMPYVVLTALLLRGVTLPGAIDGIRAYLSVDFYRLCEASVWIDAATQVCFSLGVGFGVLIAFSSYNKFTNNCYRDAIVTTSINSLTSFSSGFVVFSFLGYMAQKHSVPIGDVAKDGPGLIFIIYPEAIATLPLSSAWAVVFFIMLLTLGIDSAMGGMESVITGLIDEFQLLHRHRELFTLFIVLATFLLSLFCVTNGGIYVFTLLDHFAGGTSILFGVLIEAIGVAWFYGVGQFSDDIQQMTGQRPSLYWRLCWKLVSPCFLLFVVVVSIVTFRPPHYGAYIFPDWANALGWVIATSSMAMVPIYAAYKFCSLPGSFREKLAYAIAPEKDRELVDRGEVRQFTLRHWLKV
Experimental: as §1, §2, §3, §4

[3] = target: T3, hSERT T583A (S2 site mutant) (Homo sapiens, UniProt P31645, T583A); experiment: APP+ transport in HeLa cells expressing hSERT mutant T583A; format: cell-based; conditions: 2 μM APP+ 5 min, intact HeLa cells, read-out: SAG IC50 for transport
T3 construct: expressed in transfected cells; host or cells: HeLa (ATCC CCL-2), transient, pcDNA3.1
Experimental: as §1, §2, §3, §4

[4] = target: T4, hDAT T566A (S2 site mutant) (Homo sapiens, UniProt Q01959, T566A); experiment: APP+ transport in HeLa cells expressing hDAT mutant T566A; format: cell-based
T4 construct: expressed in transfected cells; host or cells: HeLa
T4 sequence (Q01959 whole entry T566A): as the sequence (Q01959 whole entry A480G) above, with G480A, T566A counted along it
Experimental: as §1, §2, §3, §4

[5] = target: T5, hSERT I327A (S2 site mutant) (Homo sapiens, UniProt P31645, I327A); experiment: APP+ transport in HeLa cells expressing hSERT mutant I327A; format: cell-based; conditions: 2 μM APP+ 5 min, intact HeLa cells, read-out: SAG IC50 for transport
T5 construct: expressed in transfected cells; host or cells: HeLa (ATCC CCL-2), transient, pcDNA3.1
Experimental: as §1, §2, §3, §4

[6] = target: T6, hSERT E493N (S2 site mutant) (Homo sapiens, UniProt P31645, E493N); experiment: APP+ transport in HeLa cells expressing hSERT mutant E493N; format: cell-based; conditions: 2 μM APP+ 5 min, intact HeLa cells, read-out: SAG IC50 for transport
T6 construct: expressed in transfected cells; host or cells: HeLa (ATCC CCL-2), transient, pcDNA3.1
Experimental: as §1, §2, §3, §4

[7] = target: T7, hSERT F556A (S2 site mutant) (Homo sapiens, UniProt P31645, F556A); experiment: APP+ transport in HeLa cells expressing hSERT mutant F556A; format: cell-based; conditions: 2 μM APP+ 5 min, intact HeLa cells, read-out: SAG IC50 for transport
T7 construct: expressed in transfected cells; host or cells: HeLa (ATCC CCL-2), transient, pcDNA3.1
Experimental: as §1, §2, §3, §4

[8] = target: T8, hNET K541G (S2 site mutant) (Homo sapiens, UniProt P23975, K541G); experiment: APP+ transport in HeLa cells expressing hNET mutant K541G; format: cell-based; conditions: intact HeLa cells, read-out: SAG IC50
T8 construct: expressed in transfected cells; host or cells: HeLa
T8 sequence (P23975 whole entry K541G): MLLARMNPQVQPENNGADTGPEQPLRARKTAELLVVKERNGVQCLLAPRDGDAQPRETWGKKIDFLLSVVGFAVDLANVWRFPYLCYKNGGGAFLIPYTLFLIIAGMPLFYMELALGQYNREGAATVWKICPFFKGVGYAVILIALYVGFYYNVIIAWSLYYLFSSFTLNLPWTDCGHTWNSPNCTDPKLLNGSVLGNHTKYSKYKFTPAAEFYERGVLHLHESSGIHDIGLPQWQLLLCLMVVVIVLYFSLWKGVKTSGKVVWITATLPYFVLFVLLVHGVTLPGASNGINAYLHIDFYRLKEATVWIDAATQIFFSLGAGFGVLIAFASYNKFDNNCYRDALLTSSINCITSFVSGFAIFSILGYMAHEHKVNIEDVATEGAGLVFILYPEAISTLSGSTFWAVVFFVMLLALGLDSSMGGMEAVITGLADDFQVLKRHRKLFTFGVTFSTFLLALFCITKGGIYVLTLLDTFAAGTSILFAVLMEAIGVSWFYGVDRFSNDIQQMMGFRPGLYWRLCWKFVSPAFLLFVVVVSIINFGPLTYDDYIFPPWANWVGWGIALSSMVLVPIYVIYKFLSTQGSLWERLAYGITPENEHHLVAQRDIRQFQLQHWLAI
Experimental: as §1, §2, §3, §4

[9] = target: T9, hSERT T497A (S2 site mutant) (Homo sapiens, UniProt P31645, T497A); experiment: ASP+ binding in digitonin-permeabilized HeLa cells expressing hSERT T497A; conditions: 10 μM ASP+, read-out: SAG IC50 for binding
T9 construct: expressed in transfected cells; host or cells: HeLa (ATCC CCL-2), transient, pcDNA3.1
Experimental: as §1, §2, §3, §4

[10] = target: T10, hDAT V152F (S1 site mutant) (Homo sapiens, UniProt Q01959, V152F); experiment: APP+ transport in HeLa cells expressing hDAT mutant V152F; format: cell-based
T10 construct: expressed in transfected cells; host or cells: HeLa
T10 sequence (Q01959 whole entry V152F): as the sequence (Q01959 whole entry A480G) above, with V152F, G480A counted along it
Experimental: as §1, §2, §3, §4

[11] = target: T11, hDAT R544G (S2 site mutant) (Homo sapiens, UniProt Q01959, R544G); experiment: APP+ transport in HeLa cells expressing hDAT mutant R544G; format: cell-based
T11 construct: expressed in transfected cells; host or cells: HeLa
T11 sequence (Q01959 whole entry R544G): as the sequence (Q01959 whole entry A480G) above, with G480A, R544G counted along it
Experimental: as §1, §2, §3, §4

[12] = target: T12, hNET D473N (S2 site mutant) (Homo sapiens, UniProt P23975, D473N); experiment: APP+ transport in HeLa cells expressing hNET mutant D473N; format: cell-based
T12 construct: expressed in transfected cells; host or cells: HeLa
T12 sequence (P23975 whole entry D473N): as the sequence (P23975 whole entry K541G) above, with D473N, G541K counted along it
Experimental: as §1
HeLa cells were cultured in Dulbecco’s Modified Eagle’s Medium supplemented with 10% fetal bovine serum, 100 units/ml penicillin, and 100 μg/ml streptomycin at 37°C in a humidified 5% CO2 incubator. Cells were plated in a 6-well culture plate and grown overnight. Cells at ∼70% confluence were transfected with hSERT, hDAT, or hNET cDNA in pcDNA3.1 by lipofectamine 2000. Transfected cells were incubated for 24 h at 37°C with 5% CO2 and then transferred into a 12-well plate placed with polylysine coated slides. After grown for additional 12–16 h, the cells were assayed for APP^+ or ASP^+ fluorescence image acquisition.
The cells expressing WT or mutants of hSERT, hDAT, or hNET were wet mounted on polylysine coated glass slides in 12-well plates and applied for the indicated treatments. In brief, the cells were washed twice with 500 μl KRH buffer containing 20 mM HEPES, pH 7.4, 120 mM NaCl, 1.3 mM KCl, 2.2 mM CaCl2, 1.2 mM MgSO4, and 0.1% (w/v) glucose. […] Excess APP^+ was then removed by rapid washing three times with 500 μl KRH buffer. The extent of APP^+ accumulated in the cells was determined by confocal imaging analysis. ASP^+ binding to SERT in the cell membrane was measured with digitonin-permeabilized cells ([Li M. et al., 2022a]). […] After removing excess ASP^+ by rapid washing three times, ASP^+ binding was determined by confocal imaging analysis.
Images were analyzed using Zen Blue software.
Nonlinear regression fits of experimental and calculated data were performed with Origin (Origin Lab). The statistical analysis given was from multiple experiments. Data with error bars in the figures represent the mean ± SD for at least 10 measurements per condition in one experiment or the mean ± SEM from at least three experiments as indicated, respectively. […]

[13] = target: T13, hSERT P560G (S2 site mutant) (Homo sapiens, UniProt P31645, P560G); experiment: ASP+ binding in digitonin-permeabilized HeLa cells expressing hSERT P560G; conditions: 10 μM ASP+, read-out: SAG IC50 for binding
T13 construct: expressed in transfected cells; host or cells: HeLa (ATCC CCL-2), transient, pcDNA3.1
Experimental: as §1, §2, §3, §4

[14] = target: T14, hSERT E494Q (S2 site mutant) (Homo sapiens, UniProt P31645, E494Q); experiment: APP+ transport in HeLa cells expressing hSERT mutant E494Q; format: cell-based; conditions: 2 μM APP+ 5 min, intact HeLa cells, read-out: SAG IC50 for transport
T14 construct: expressed in transfected cells; host or cells: HeLa (ATCC CCL-2), transient, pcDNA3.1
Experimental: as §1, §2, §3, §4

[15] = target: T15, hSERT Y579A (S2 site mutant) (Homo sapiens, UniProt P31645, Y579A); experiment: APP+ transport in HeLa cells expressing hSERT mutant Y579A; format: cell-based; conditions: 2 μM APP+ 5 min, intact HeLa cells, read-out: SAG IC50 for transport
T15 construct: expressed in transfected cells; host or cells: HeLa (ATCC CCL-2), transient, pcDNA3.1
Experimental: as §1, §2, §3, §4

[16] = target: T16, hSERT Q562N (S2 site mutant) (Homo sapiens, UniProt P31645, Q562N); experiment: ASP+ binding in digitonin-permeabilized HeLa cells expressing hSERT Q562N; conditions: 10 μM ASP+, read-out: SAG IC50 for binding
T16 construct: expressed in transfected cells; host or cells: HeLa (ATCC CCL-2), transient, pcDNA3.1
Experimental: as §1, §2, §3, §4

[17] = target: T17, hNET F317A (S2 site mutant) (Homo sapiens, UniProt P23975, F317A); experiment: APP+ transport in HeLa cells expressing hNET mutant F317A; format: cell-based
T17 construct: expressed in transfected cells; host or cells: HeLa
T17 sequence (P23975 whole entry F317A): as the sequence (P23975 whole entry K541G) above, with F317A, G541K counted along it
Experimental: as §1, §2, §3, §4

[18] = target: T14, hSERT E494Q (S2 site mutant); experiment: ASP+ binding in digitonin-permeabilized HeLa cells expressing hSERT E494Q; conditions: 10 μM ASP+, read-out: SAG IC50 for binding
Experimental: as §1, §2, §3, §4

[19] = target: T18, hSERT P561G (S2 site mutant) (Homo sapiens, UniProt P31645, P561G); experiment: ASP+ binding in digitonin-permeabilized HeLa cells expressing hSERT P561G; conditions: 10 μM ASP+, read-out: SAG IC50 for binding
T18 construct: expressed in transfected cells; host or cells: HeLa (ATCC CCL-2), transient, pcDNA3.1
Experimental: as §1, §2, §3, §4

## (-)-Syringaresinol-4-O-β-D-apiofuranosyl-(1→2)-β-D-glucopyranoside [SAG]
[1]; hSERT Tyr95 to Phe (S1) vs WT-hSERT, APP+ transport
  Effect of mutation on SAG inhibition potency: little effect
[1]; hSERT Y95F (S1), 2 μM APP+ 5 min, intact HeLa cells, read-out: SAG IC50 for transport
  IC50: 4.45 ± 0.17 µM
[2]
  IC50: 239 ± 14 µM
[3]
  IC50: > 1000 µM
[4]; hDAT T566A vs WT-hDAT
  Increase in SAG IC50 compared with WT: less than 10 fold
[4]; hDAT T566A, intact HeLa cells, read-out: SAG IC50
  IC50: 136 ± 6 µM
[5]
  IC50: 25.5 ± 1.2 µM
[6]
  IC50: 53.2 ± 6.6 µM
[7]
  IC50: 41 ± 6.5 µM
[8]
  IC50: 79.8 ± 3.3 µM
[9]
  IC50: 152 ± 12 µM
[10]; hDAT S1 residue Val152 replaced
  Effect of mutation on SAG inhibition potency: little effect
[10]; hDAT V152F (S1), intact HeLa cells, read-out: SAG IC50
  IC50: 26.6 ± 2.8 µM
[11]; hDAT R544G vs WT-hDAT
  Increase in SAG IC50 compared with WT: less than 10 fold
[11]; hDAT R544G, intact HeLa cells, read-out: SAG IC50
  IC50: 150 ± 4 µM
[12]; hNET D473N vs WT-hNET
  Change in SAG inhibition potency compared to WT: little change
  Decrease in SAG inhibition potency compared with WT: less than 3 folds
[12]; hNET D473N, intact HeLa cells, read-out: SAG IC50
  IC50: 42.7 ± 4.7 µM
[13]
  IC50: 324 ± 28 µM
[14]
  IC50: 153 ± 2 µM
[15]
  IC50: 127 ± 3 µM
[16]
  IC50: 450 ± 23 µM
[17]; hNET F317A vs WT-hNET
  Change in SAG inhibition potency compared to WT: little change
[17]; hNET F317A, intact HeLa cells, read-out: SAG IC50
  IC50: 36.7 ± 7.6 µM
[18]
  IC50: 192 ± 16 µM
[19]
  IC50: > 1000 µM

— publication PMC9649612, “Molecular docking and biochemical validation of (-)-syringaresinol-4-O-β-D-apiofuranosyl-(1→2)-β-D-glucopyranoside binding to an allosteric site in monoamine transporters” (Frontiers in Pharmacology, 2022)
